Source: ChEMBL document CHEMBL1148559, “Synthesis and monoamine transporter affinity of new 2beta-carbomethoxy-3beta-[aryl or heteroaryl]phenyltropanes” (Bioorg Med Chem Lett, 2006)

Key:
[1] = Selectivity for SERT over DAT; format: protein assay; details: Rattus norvegicus
[2] = target: Sodium-dependent dopamine transporter (Rattus norvegicus, UniProt P23977); experiment: Displacement of [3H]GBR-12935 from DAT in rat […]; format: tissue-based
[3] = target: Norepinephrine transporter (Rattus norvegicus, UniProt Q9WTR4); experiment: Displacement of [3H]nisoxetine from NET in rat […]; format: tissue-based
[4] = target: Sodium-dependent serotonin transporter (Rattus norvegicus, UniProt P31652); experiment: Displacement of [3H]paroxetine from SERT in rat frontoparietal cerebral cortex; format: tissue-based
[5] = target: Monoamine transporters; Norepinephrine & serotonin (Rattus norvegicus) (UniProt P31652+Q9WTR4); experiment: Selectivity for SERT over NET; format: protein assay

Norepinephrine transporter, sequence (Q9WTR4 whole entry): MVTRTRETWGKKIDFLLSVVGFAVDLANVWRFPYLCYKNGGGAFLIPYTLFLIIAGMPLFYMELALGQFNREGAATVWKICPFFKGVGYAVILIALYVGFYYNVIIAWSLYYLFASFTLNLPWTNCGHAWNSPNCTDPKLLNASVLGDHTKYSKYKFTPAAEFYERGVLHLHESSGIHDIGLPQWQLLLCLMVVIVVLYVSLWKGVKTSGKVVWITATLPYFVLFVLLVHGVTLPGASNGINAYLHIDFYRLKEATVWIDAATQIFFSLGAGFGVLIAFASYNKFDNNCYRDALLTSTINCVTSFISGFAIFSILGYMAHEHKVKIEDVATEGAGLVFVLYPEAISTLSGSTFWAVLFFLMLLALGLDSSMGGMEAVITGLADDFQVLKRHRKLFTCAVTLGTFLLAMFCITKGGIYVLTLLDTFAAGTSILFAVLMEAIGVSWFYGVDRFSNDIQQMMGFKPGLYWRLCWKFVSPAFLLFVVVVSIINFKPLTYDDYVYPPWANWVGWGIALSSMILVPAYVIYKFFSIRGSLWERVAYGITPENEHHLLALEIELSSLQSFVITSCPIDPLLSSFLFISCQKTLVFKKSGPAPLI
Sodium-dependent dopamine transporter, sequence (P23977 whole entry): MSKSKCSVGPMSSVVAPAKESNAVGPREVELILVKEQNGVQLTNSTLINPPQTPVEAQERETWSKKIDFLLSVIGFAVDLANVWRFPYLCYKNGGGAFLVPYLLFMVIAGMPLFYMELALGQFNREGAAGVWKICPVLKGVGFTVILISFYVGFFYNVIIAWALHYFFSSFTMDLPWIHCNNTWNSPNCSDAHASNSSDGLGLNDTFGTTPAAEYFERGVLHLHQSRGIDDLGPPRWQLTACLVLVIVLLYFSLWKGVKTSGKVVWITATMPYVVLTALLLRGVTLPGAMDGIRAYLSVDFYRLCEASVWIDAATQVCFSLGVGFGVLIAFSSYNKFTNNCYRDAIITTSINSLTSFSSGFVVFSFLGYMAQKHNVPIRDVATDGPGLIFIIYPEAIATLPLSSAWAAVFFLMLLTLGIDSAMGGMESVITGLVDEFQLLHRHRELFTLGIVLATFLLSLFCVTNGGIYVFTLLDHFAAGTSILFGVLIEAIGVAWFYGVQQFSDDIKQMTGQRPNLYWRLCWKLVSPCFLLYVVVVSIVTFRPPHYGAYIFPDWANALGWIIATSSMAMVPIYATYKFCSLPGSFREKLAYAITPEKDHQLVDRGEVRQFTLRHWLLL
Sodium-dependent serotonin transporter, sequence (P31652 whole entry): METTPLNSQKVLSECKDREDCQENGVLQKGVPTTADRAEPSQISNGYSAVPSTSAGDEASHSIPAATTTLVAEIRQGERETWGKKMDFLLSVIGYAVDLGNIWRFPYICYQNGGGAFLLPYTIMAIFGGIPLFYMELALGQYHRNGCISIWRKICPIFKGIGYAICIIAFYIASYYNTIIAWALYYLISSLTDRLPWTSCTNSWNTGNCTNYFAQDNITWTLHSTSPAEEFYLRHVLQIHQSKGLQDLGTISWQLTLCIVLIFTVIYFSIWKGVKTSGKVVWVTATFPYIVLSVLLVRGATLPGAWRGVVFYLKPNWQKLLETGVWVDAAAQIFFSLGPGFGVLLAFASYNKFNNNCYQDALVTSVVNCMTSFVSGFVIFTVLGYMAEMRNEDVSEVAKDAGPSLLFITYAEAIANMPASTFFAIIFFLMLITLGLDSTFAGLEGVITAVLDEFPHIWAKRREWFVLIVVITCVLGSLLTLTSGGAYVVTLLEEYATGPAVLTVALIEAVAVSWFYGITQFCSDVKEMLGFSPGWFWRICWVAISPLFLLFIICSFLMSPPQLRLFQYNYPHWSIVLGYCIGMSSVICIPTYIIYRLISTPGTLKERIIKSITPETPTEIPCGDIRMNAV

| Structure (SMILES) | Ratio Ki [1] | Ki [2] [nM] | Ki [3] [nM] | Ki [4] [nM] | Ratio Ki [5] |
| --- | --- | --- | --- | --- | --- |
| COC(=O)C1C(c2ccc(-c3cncc(OC)c3)cc2)CC2CCC1N2C (stereo not given) | 150 | 587 | 1590 | 3.91 | – |
| COC(=O)C1C2CCC(CC1c1ccc(-c3cncc(OC)c3)cc1)N2 (stereo not given) | 212 | 332 | 739 | 1.56 | – |
| COC(=O)C1C(c2ccc(-c3cnccn3)cc2)CC2CCC1N2C (stereo not given) | 10 | 121 | 213 | 11.3 | – |
| COC(=O)C1C(c2ccc(-c3ccoc3)cc2)CC2CCC1N2C (stereo not given) | 40 | 14.2 | 127 | 0.35 | – |
| COC(=O)C1C(c2ccc(-c3cccnc3)cc2)CC2CCC1N2C (stereo not given) | 7 | 26.1 | 1410 | – | – |
| COC(=O)C1C(c2ccc(-c3ccccn3)cc2)CC2CCC1N2C (stereo not given) | 0.27 | – | > 10000 | – | – |
| COC(=O)C1C(c2ccc(-c3ccco3)cc2)CC2CCC1N2C (stereo not given) | 6 | – | 1400 | – | – |
| COC(=O)C1C(c2ccc(-c3cncnc3)cc2)CC2CCC1N2C (stereo not given) | 110 | – | > 10000 | – | – |
| COC(=O)C1C(c2ccc(-c3ccncc3)cc2)CC2CCC1N2C (stereo not given) | – | 1570 | > 30000 | > 1000 | – |
| COC(=O)C1C(c2ccc(-c3cc(F)cc(F)c3)cc2)CC2CCC1N2C (stereo not given) | 77 | 31.7 | 109 | 0.41 | 265 |
| COC(=O)C1C2CCC(CC1c1ccc(-c3nccs3)cc1)N2 (stereo not given) | 13 | 69.6 | 213 | 5.15 | – |
| COC(=O)C1C(c2ccc(-c3cccc(N(C)C)c3)cc2)CC2CCC1N2C (stereo not given) | – | 545 | > 30000 | > 1000 | – |
| COC(=O)C1C2CCC(CC1c1ccc(-c3ccco3)cc1)N2 (stereo not given) | 25 | 3.76 | 12.7 | 0.15 | – |
| COC(=O)C1C(c2ccc(-c3cccc(F)c3)cc2)CC2CCC1N2C (stereo not given) | 50 | 25.2 | 249 | 0.5 | 498 |
| COC(=O)C1C(c2ccc(-c3nccs3)cc2)CC2CCC1N2C (stereo not given) | 311 | 520 | > 10000 | 1.67 | – |
| COC(=O)C1C(c2ccc(-c3cnc4ccccc4c3)cc2)CC2CCC1N2C (stereo not given) | 3 | – | > 30000 | – | – |
